Data published in patent publication US9845327B2, “Treatment of proteinopathies” (THE GENERAL HOSPITAL CORPORATION, priority 2011, dated 2017).

Tests used:
[1] = test system: human dopamine neurons generated from iPS cells; test: Proteolysis by radioactive pulse-chase in human iPS dopamine neurons; assay type: cell-based; conditions: wild-type neurons; 100 μM IFG 5 days, 1 day wash-out
Description: (§1) In this Example, human dopamine neurons generated from iPS cells of an unaffected control were treated with a pharmacological chaperone activator of GCase polypeptide, isofagomine (IFG). […] Treatment of wild-type neurons with 100 μM IFG for 5 days followed by 1 day wash-out increased the levels of GCase polypeptide (FIGS. 15A and 15B). This increase was likely due to the fact that wild-type GCase polypeptide was occasionally misfolded in the ER and degraded (about 30% of the total made in the ER), and IFG appeared to also stabilize the wild-type misfolded forms.
In this Example, it was further determined if the effects discussed above could also be replicated with non-native site binding compounds that can act as allosteric activators of GCase polypeptide, and therefore unlike IFG, would not require a washout to activate GCase polypeptide. […]
Proteolysis of long-lived proteins was determined by radioactive pulse-chase using ^3H-leucine. […] Samples were centrifuged at 20,000×g for 20 min, 4° C., and the radioactivity was measured in 5 ml of scintillation cocktail using a Beckman LS 1701 liquid scintillation counter (Beckman Instruments). Precipitated protein pellets were extracted in 200 μl of Na deoxycholate, 0.1 M NaOH, and radioactivity was determined. Percent proteolysis was calculated as described in detail elsewhere (Kaushik et al. Methods Enzymol. 452: 297, 2009). […]

GCase polypeptide = biological target: T1, GCase polypeptide (Homo sapiens, UniProt P04062); test: GCase polypeptide levels and post-ER forms by western blot in human iPS dopamine neurons; assay type: cell-based; conditions: wild-type neurons from an unaffected control; 100 μM IFG for 5 days followed by 1 day wash-out
T1 construct: endogenous in cells; host or cells: human iPS-derived midbrain dopamine neurons (healthy control; PD patient with SNCA triplication, Coriell ND27760)
T1 sequence (P04062 40-536): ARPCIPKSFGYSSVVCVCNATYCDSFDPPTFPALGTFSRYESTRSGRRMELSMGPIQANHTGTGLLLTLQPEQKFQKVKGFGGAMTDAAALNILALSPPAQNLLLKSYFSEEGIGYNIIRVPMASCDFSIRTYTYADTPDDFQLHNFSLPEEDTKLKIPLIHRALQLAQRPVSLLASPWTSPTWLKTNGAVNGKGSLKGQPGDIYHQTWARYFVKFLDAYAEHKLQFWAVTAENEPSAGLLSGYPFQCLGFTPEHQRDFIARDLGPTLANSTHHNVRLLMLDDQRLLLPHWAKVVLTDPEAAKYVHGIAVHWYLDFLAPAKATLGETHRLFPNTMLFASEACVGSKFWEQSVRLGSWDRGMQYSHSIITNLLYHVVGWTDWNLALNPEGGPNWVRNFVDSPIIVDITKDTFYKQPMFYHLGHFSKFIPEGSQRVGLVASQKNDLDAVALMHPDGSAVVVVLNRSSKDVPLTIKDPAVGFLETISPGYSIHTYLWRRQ
Description: as §1
It was also shown in this Example that treatment with the GCase polypeptide activator increased the levels of total GCase protein and increased the post-ER forms, indicating enhancement of flux to the lysosome (FIG. 19B).
In this Example, the effect of combining the GCase polypeptide pharmacological chaperone IFG with the antioxidant n-acetyl-cysteine (NAC) on GCase polypeptide maturation in PD iPS neurons was tested. Neurons were treated with either IFG, NAC, or IFG and NAC together, and GCase polypeptide maturation was analyzed by western blot.
Most materials for SDS-PAGE were obtained from Invitrogen (NuPAGE system). Protein lysates were boiled in sample buffer (20 mM Tris, 1% (v/v) glycerol, 180 mM β-mercaptoethanol, 0.003% (w/v) bromophenol blue, 2% (w/v) SDS, pH 6.8), resolved on 4%-12% Bis-Tris polyacrylamide precast gels in a MOPS-SDS running buffer, or 4%-12% Tris-Glycine gels. 10% Tris-Glycine gels were utilized for some GCase polypeptide western blot's (FIGS. 13B, 13D, and 13E, and FIGS. 14C and 14F). […] Blots were blocked in Odyssey blocking buffer (Li-Cor biosciences) containing 0.05% Tween, or 5% non-fat dry milk in TBS-T 0.2%, followed by incubation with primary antibodies (see above for dilutions), and detected with anti-mouse or -rabbit IgG conjugated to IRDye 680 or 800 (1:10,000, Li-Cor biosciences). […] Any nonspecific bands detected were not included in densitometric analyses. […]

OC[C@H]1CNC[C@@H](O)[C@@H]1O [IFG, isofagomine]
Proteolysis rate, fold increase compared to controls [1]: 3 fold | levels of GCase polypeptide (GCase polypeptide): increased
